Measurements from BindingDB's records for PubMed 10336515 (Banyu Pharmaceutical, 1999).

What was measured:
[1] = target: T1, Endothelin receptor type B (Homo sapiens, UniProt P24530)
T1 sequence (P24530 whole entry): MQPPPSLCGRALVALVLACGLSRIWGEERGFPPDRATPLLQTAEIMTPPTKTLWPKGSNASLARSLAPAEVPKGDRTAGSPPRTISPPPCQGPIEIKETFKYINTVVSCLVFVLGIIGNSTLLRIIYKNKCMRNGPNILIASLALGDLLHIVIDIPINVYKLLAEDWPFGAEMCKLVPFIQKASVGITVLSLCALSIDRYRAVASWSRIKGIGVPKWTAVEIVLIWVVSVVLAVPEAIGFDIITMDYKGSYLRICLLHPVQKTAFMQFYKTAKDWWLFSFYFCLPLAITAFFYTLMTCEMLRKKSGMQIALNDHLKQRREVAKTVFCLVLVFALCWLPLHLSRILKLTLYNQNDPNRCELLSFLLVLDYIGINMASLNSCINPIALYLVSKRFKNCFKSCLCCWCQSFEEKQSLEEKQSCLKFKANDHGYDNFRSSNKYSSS

[2] = target: T2, Endothelin-1 receptor (Homo sapiens, UniProt P25101)
T2 sequence (P25101 whole entry): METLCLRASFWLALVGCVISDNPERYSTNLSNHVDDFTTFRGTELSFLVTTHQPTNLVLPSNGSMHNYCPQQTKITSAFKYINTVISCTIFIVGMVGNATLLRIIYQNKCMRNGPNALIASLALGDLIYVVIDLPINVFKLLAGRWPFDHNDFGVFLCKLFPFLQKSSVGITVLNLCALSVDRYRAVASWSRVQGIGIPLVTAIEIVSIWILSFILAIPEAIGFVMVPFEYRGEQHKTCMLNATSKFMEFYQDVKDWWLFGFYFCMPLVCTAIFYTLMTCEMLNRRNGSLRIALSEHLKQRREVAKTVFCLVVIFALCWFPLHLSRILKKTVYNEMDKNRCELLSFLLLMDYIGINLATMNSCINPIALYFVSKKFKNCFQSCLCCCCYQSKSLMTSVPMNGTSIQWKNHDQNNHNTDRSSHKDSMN

CCCCc1ccc2c(n1)[C@@H](c1ccc(OC)cc1C[C@H](C)C(=O)O)[C@H](C(=O)O)[C@H]2c1ccc2c(c1)OCO2 [J-104132]
Ki [1]: 0.1 nM
Ki [2]: 0.03 nM
